Key:
Homo sapiens = species: Homo sapiens; experiment: Selectivity ratio of Ki for human adenosine A1 receptor to Ki for human recombinant adenosine A2A receptor
Adenosine receptor A2a = Adenosine receptor A2a (Homo sapiens, UniProt P29274); experiment: Displacement of [3H]SCH-58261 from human recombinant adenosine A2A receptor expressed in HEK293 cells; format: cell-based
Adenosine receptor A1 = target: T1, Adenosine receptor A1 (Homo sapiens, UniProt P30542); experiment: Displacement of [3H]DPCPX from human recombinant adenosine A1 receptor expressed in CHOK1 cells; format: cell-based, CHO-K1
T1 sequence (P30542 whole entry): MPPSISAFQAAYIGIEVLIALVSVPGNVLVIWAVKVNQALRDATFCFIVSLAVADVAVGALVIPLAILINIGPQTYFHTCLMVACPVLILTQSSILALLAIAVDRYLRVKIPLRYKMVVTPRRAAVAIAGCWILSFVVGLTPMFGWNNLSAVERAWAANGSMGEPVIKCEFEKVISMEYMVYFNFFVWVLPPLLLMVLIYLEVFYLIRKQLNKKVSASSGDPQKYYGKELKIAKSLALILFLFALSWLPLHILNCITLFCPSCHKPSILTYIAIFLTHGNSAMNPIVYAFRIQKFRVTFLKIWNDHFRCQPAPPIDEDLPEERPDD

Sequence of Adenosine receptor A2a (P29274 whole entry): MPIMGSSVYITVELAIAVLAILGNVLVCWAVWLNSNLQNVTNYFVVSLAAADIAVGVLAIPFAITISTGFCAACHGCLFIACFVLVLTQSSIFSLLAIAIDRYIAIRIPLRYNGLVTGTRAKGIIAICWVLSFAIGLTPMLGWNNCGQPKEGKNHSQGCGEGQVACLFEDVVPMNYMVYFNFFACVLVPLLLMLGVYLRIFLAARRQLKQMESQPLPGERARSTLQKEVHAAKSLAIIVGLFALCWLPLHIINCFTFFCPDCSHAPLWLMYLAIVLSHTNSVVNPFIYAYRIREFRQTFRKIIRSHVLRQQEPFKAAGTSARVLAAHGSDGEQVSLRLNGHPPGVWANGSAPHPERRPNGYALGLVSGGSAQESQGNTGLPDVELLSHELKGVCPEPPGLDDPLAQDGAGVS

SMILES | Ratio Ki (Homo sapiens) | Ki (Adenosine receptor A2a) [nM] | Ki (Adenosine receptor A1) [nM]
COc1cccc(-n2c(=O)n(Cc3c(F)cccc3F)c3cnc(NCc4ccccc4)nc32)c1 | 42 | 72 | 2970
COc1cccc(-n2c(=O)n(Cc3c(F)cccc3F)c3cnc(Nc4cccnc4)nc32)c1 | 17 | 111 | 1830
COc1cccc(-n2c(=O)n(Cc3c(F)cccc3F)c3cnc(NC4CC4)nc32)c1 | 59 | 4 | 236
COc1cccc(-n2c(=O)n(Cc3c(F)cccc3F)c3cnc(NCc4ccncc4)nc32)c1 | 24 | 50 | 1190
COc1cccc(-n2c(=O)n(Cc3c(F)cccc3F)c3cnc(NCc4ccccn4)nc32)c1 | 100 | 12 | 1210
COc1ccccc1Cn1c(=O)n(-c2cccc(C)c2)c2nc(NC3CC3)ncc21 | 6 | 316 | 1850
COc1ccccc1Cn1c(=O)n(-c2ccccc2OC)c2nc(NC3CC3)ncc21 |  | 1560 | 
COc1cccc(-n2c(=O)n(Cc3c(F)cccc3F)c3cnc(NC(C)C)nc32)c1 | 10 | 60 | 616
CNc1ncc2c(n1)n(-c1cccc(OC)c1)c(=O)n2Cc1c(F)cccc1F | 49 | 23 | 1110
COc1cccc(-n2c(=O)n(Cc3ccccc3OC)c3cnc(NC4CC4)nc32)c1 | 17 | 24 | 402
COc1cccc(-n2c(=O)n(Cc3c(F)cccc3OC)c3cnc(NC4CC4)nc32)c1 | 55 | 6 | 330
COc1cccc(-n2c(=O)n(-c3ccccc3OC)c3cnc(NC4CC4)nc32)c1 | 0.2 | 5120 | 1260
COc1cccc(-n2c(=O)n(Cc3ccccc3)c3cnc(NC4CC4)nc32)c1 | 10 | 54 | 564
CCNc1ncc2c(n1)n(-c1cccc(OC)c1)c(=O)n2Cc1c(F)cccc1F | 34 | 31 | 1050
COc1cccc(-n2c(=O)n(Cc3c(F)cccc3F)c3cnc(NCCN4CCOCC4)nc32)c1 | 33 | 259 | 8600
COc1cccc(-n2c(=O)n(Cc3ccccc3Cl)c3cnc(NC4CC4)nc32)c1 | 33 | 86 | 2850

SMILES | Ratio Ki (Homo sapiens) | Ki (Adenosine receptor A2a) [nM] | Ki (Adenosine receptor A1) [nM]
COc1ccccc1Cn1c(=O)n(-c2cccc(C#N)c2)c2nc(NC3CC3)ncc21 | 1.3 | 2590 | 3240
COc1ccccc1Cn1c(=O)n(-c2cccc(F)c2)c2nc(NC3CC3)ncc21 | 7 | 89 | 599
COCCNc1ncc2c(n1)n(-c1cccc(OC)c1)c(=O)n2Cc1c(F)cccc1F | 14 | 106 | 1470
COc1cccc(-n2c(=O)n(C)c3cnc(NC4CC4)nc32)c1 |  | 2640 | 
COc1cccc(-n2c(=O)n(Cc3ccccc3F)c3cnc(NC4CC4)nc32)c1 | 6 | 33 | 201
COc1cc(OC)cc(-n2c(=O)n(Cc3ccccc3OC)c3cnc(NC4CC4)nc32)c1 | 61 | 76 | 4640
COc1cccc(-n2c(=O)n(Cc3c(F)cccc3F)c3cnc(NCc4cccnc4)nc32)c1 | 20 | 66 | 1300
COc1cccc(Cn2c(=O)n(Cc3ccccc3OC)c3cnc(NC4CC4)nc32)c1 |  | 9210 | > 10000
COc1cccc(-n2c(=O)n(Cc3c(F)cccc3F)c3cnc(NC4CCCC4)nc32)c1 | 5 | 213 | 1060
COc1ccccc1Cn1c(=O)n(-c2ccccc2)c2nc(NC3CC3)ncc21 | 1.1 | 409 | 447
COc1cccc(-n2c(=O)n(Cc3c(F)cccc3F)c3cnc(NCCc4ccccn4)nc32)c1 | 23 | 78 | 1800
COc1ccccc1Cn1c(=O)n(-c2cccc(OC(F)(F)F)c2)c2nc(NC3CC3)ncc21 | 25 | 206 | 5140
COc1cccc(-n2c(=O)n(C(C)c3ccccc3)c3cnc(NC4CC4)nc32)c1 (centres undefined) |  | 359 | 
COc1cccc(-n2c(=O)n(Cc3c(F)cccc3F)c3cnc(NCCc4cccs4)nc32)c1 | 220 | 9 | 1970
COc1cccc(-n2c(=O)n(Cc3c(F)cccc3F)c3cnc(NCCN(C)C)nc32)c1 | 38 | 261 | 10000
COc1cccc(-n2c(=O)n(Cc3c(F)cccc3F)c3cnc(NCC4CC4)nc32)c1 | 2 | 499 | 1070
